Test results: PubChem BioAssay (NCI)
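In this assay, cells in 96-well plates receive the compound at five concentrations for 48 hours. Endpoints are linearly interpolated between the surrounding concentrations. TGI denotes the concentration required for complete inhibition of growth.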

These compounds were tested on PC-3 prostate (assay: NCI-60 cell line screen, 48 h).
Work on O=C(ON=C1c2ccccc2C(Br)C(Br)c2ccccc21)c1ccccc1 (configuration not stated) yielded a TGI of 40.2 µM. For CC(=O)c1ccc(Oc2c3ccccc3nc3ccccc23)cc1, the TGI was 20.3 µM. C[n+]1cc2cc(O)c(O)cc2c2ccc3cc(O)c(O)cc3c21 was tested, and the TGI was 34.4 µM. COc1ccc2c(c1)c1c(n2CCN2CCCCC2)-c2cccc(OC)c2CC1 showed a TGI of 35.6 µM. With COc1ccc2nc(NC(=O)/C(C#N)=C/c3ccccc3)sc2c1 the TGI was over 100 µM. For Cc1c(C)n(-c2ccccc2)c2nc(S(C)=O)nc(S(C)=O)c12 (configuration not stated), the TGI was 19.7 µM. Work on CC1(C)CC(=O)C2=C(C1)C(c1ccccc1Cl)C1C(=O)CC(C)(C)CC1(O)O2 (configuration not stated) yielded a TGI of over 100 µM. Compound Cc1ccc2c(c1C)C(=O)C1(Cc3cc4c(cc3C1=O)CCC4)C2 (configuration not stated) has a TGI of over 100 µM. C[C@@H]1CC[C@@]2(C)C(C(=O)O)=CCCC2[C@@]1(C)CC(=O)c1ccoc1 (some centres not stated) gave a TGI of over 25 µM. With O=C(CCc1cc(O)cc(O)c1)NCCc1cc(OCc2ccccc2)cc(OCc2ccccc2)c1 the TGI was 23.6 µM. Compound c1ccc(C2=NC3OC2c2ccccc23)cc1 (configuration not stated) has a TGI of over 10 µM. Work on O=c1oc2ccc3ccccc3c2cc1-c1cn2ccsc2n1 yielded a TGI of 96.4 µM. For CCOC(=O)CSc1nc(N)c2c(-c3ccccc3)c3c(nc2n1)CCCC3, the TGI was over 100 µM. COC(=O)/C=C(/C=C1/C(C#N)=C(N)N(c2ccc(Cl)cc2)C1(C)/C(=C\C(=O)OC)C(=O)OC)C(=O)OC (configuration not stated) gave a TGI of 35 µM. Compound Cc1ccccc1-c1nc2c(N)nc(N)nc2nc1N has a TGI of over 100 µM. CCOC(=O)c1c(N2CCCC2)[nH]c(=O)c(C(c2ccc(OC)cc2)c2c(O)c(C(=O)OCC)c(N3CCCC3)[nH]c2=O)c1O was tested, and the TGI was over 100 µM. In the case of CC1CC(N2CCOCC2)=Nc2ccccc2N1C (configuration not stated), the TGI is reported as over 100 µM. CCOC1C=CC(=O)C(CO)O1 (configuration not stated) was tested, and the TGI was 28.9 µM. For CC(C)C(Br)CCC1=CCC(Br)(Br)C1 (configuration not stated), the TGI was 28.5 µM. Cc1c2cccc-2c2cc(O)c3ccccc3c2n1-c1ccc(N(C)C)cc1 showed a TGI of 23.9 µM. With O=CC(I)=C(c1ccccc1)c1ccccc1 the TGI was 29.3 µM. In the case of c1c[nH]c(-c2cccc3nsnc23)c1, the TGI is reported as over 100 µM. Cn1c2ccccc2c2ccc3c(c21)C(=O)c1ccc2c4ccccc4n(C)c2c1C3=O was tested, and the TGI was over 100 µM. Work on COc1ccc(C)cc1N1C(=O)C2ON(Cc3ccc(CC(N)=O)cc3)C(c3c4ccccc4c(Cl)c4ccccc34)C2C1=O (configuration not stated) yielded a TGI of over 100 µM. NS(=O)(=O)c1nnc(NC(=O)N(c2ccccc2)c2ccccc2)s1 gave a TGI of over 100 µM. COC(=O)c1ccccc1C1CN=NC12Cc1c(ccc(C)c1C)C2=O (configuration not stated) gave a TGI of over 100 µM. With CN(C)CCN(c1ccccn1)c1ccccn1 the TGI was over 100 µM. For O=C(O)c1nc2ccc(C(F)(F)F)cc2[nH]c1=O, the TGI was over 100 µM. CN(CCN1CCCC1)C1CCc2cc(Cl)c(Cl)cc2C1 (configuration not stated) was tested, and the TGI was 52.4 µM. With COC(=O)/C=C(\C)CC/C=C(\C)CCC1OC1(C)C (configuration not stated) the TGI was 17.4 µM. With CC(C)NC(=O)OCc1c(COC(=O)NC(C)C)n(C)c2c1ccc1sccc12 the TGI was 43.7 µM. O=C(CC(NC(=O)C(F)(F)F)C(=O)O)OCc1ccccc1 (configuration not stated) was tested, and the TGI was over 100 µM. For COc1cccc(C2c3cc4c(cc3OC(O)C2C)OCO4)c1OC (configuration not stated), the TGI was 32.1 µM.

The compounds below were run on OVCAR-5 ovarian (assay: NCI-60 cell line screen, 48 h).
For O=C(ON=C1c2ccccc2C(Br)C(Br)c2ccccc21)c1ccccc1 (configuration not stated), the TGI was 35.6 µM. For CC(=O)c1ccc(Oc2c3ccccc3nc3ccccc23)cc1, the TGI was 23.9 µM. C[n+]1cc2cc(O)c(O)cc2c2ccc3cc(O)c(O)cc3c21 showed a TGI of over 100 µM. In the case of COc1ccc2c(c1)c1c(n2CCN2CCCCC2)-c2cccc(OC)c2CC1, the TGI is reported as 32.8 µM. In the case of COc1ccc2nc(NC(=O)/C(C#N)=C/c3ccccc3)sc2c1, the TGI is reported as over 100 µM. Cc1c(C)n(-c2ccccc2)c2nc(S(C)=O)nc(S(C)=O)c12 (configuration not stated) gave a TGI of 28.9 µM. CC1(C)CC(=O)C2=C(C1)C(c1ccccc1Cl)C1C(=O)CC(C)(C)CC1(O)O2 (configuration not stated) showed a TGI of over 100 µM. Compound Cc1ccc2c(c1C)C(=O)C1(Cc3cc4c(cc3C1=O)CCC4)C2 (configuration not stated) has a TGI of over 100 µM. Compound C[C@@H]1CC[C@@]2(C)C(C(=O)O)=CCCC2[C@@]1(C)CC(=O)c1ccoc1 (some centres not stated) has a TGI of over 25 µM. O=C(CCc1cc(O)cc(O)c1)NCCc1cc(OCc2ccccc2)cc(OCc2ccccc2)c1 was tested, and the TGI was 39.5 µM. For c1ccc(C2=NC3OC2c2ccccc23)cc1 (configuration not stated), the TGI was over 10 µM. O=c1oc2ccc3ccccc3c2cc1-c1cn2ccsc2n1 was tested, and the TGI was 66.6 µM. CCOC(=O)CSc1nc(N)c2c(-c3ccccc3)c3c(nc2n1)CCCC3 gave a TGI of over 100 µM. With COC(=O)/C=C(/C=C1/C(C#N)=C(N)N(c2ccc(Cl)cc2)C1(C)/C(=C\C(=O)OC)C(=O)OC)C(=O)OC (configuration not stated) the TGI was 48.3 µM. Compound Cc1ccccc1-c1nc2c(N)nc(N)nc2nc1N has a TGI of over 100 µM. CCOC(=O)c1c(N2CCCC2)[nH]c(=O)c(C(c2ccc(OC)cc2)c2c(O)c(C(=O)OCC)c(N3CCCC3)[nH]c2=O)c1O was tested, and the TGI was over 100 µM. Compound CC1CC(N2CCOCC2)=Nc2ccccc2N1C (configuration not stated) has a TGI of over 100 µM. Work on CCOC1C=CC(=O)C(CO)O1 (configuration not stated) yielded a TGI of 35.2 µM. For CC(C)C(Br)CCC1=CCC(Br)(Br)C1 (configuration not stated), the TGI was 30.5 µM. In the case of Cc1c2cccc-2c2cc(O)c3ccccc3c2n1-c1ccc(N(C)C)cc1, the TGI is reported as 24.7 µM. Compound O=CC(I)=C(c1ccccc1)c1ccccc1 has a TGI of 40.7 µM. With c1c[nH]c(-c2cccc3nsnc23)c1 the TGI was over 100 µM. Compound Cn1c2ccccc2c2ccc3c(c21)C(=O)c1ccc2c4ccccc4n(C)c2c1C3=O has a TGI of over 100 µM. Compound COc1ccc(C)cc1N1C(=O)C2ON(Cc3ccc(CC(N)=O)cc3)C(c3c4ccccc4c(Cl)c4ccccc34)C2C1=O (configuration not stated) has a TGI of 58.5 µM. NS(=O)(=O)c1nnc(NC(=O)N(c2ccccc2)c2ccccc2)s1 showed a TGI of 70.1 µM. COC(=O)c1ccccc1C1CN=NC12Cc1c(ccc(C)c1C)C2=O (configuration not stated) showed a TGI of over 100 µM. For CN(C)CCN(c1ccccn1)c1ccccn1, the TGI was over 100 µM. O=C(O)c1nc2ccc(C(F)(F)F)cc2[nH]c1=O was tested, and the TGI was over 100 µM. CN(CCN1CCCC1)C1CCc2cc(Cl)c(Cl)cc2C1 (configuration not stated) gave a TGI of 31.4 µM. COC(=O)/C=C(\C)CC/C=C(\C)CCC1OC1(C)C (configuration not stated) gave a TGI of 25.3 µM. Work on CC(C)NC(=O)OCc1c(COC(=O)NC(C)C)n(C)c2c1ccc1sccc12 yielded a TGI of over 100 µM. In the case of O=C(CC(NC(=O)C(F)(F)F)C(=O)O)OCc1ccccc1 (configuration not stated), the TGI is reported as over 100 µM. COc1cccc(C2c3cc4c(cc3OC(O)C2C)OCO4)c1OC (configuration not stated) was tested, and the TGI was 60.9 µM.

The compounds below were run on MDA-N (assay: NCI-60 cell line screen, 48 h).
With O=C(ON=C1c2ccccc2C(Br)C(Br)c2ccccc21)c1ccccc1 (configuration not stated) the TGI was 34.5 µM. With CC(=O)c1ccc(Oc2c3ccccc3nc3ccccc23)cc1 the TGI was 14.2 µM. Work on C[n+]1cc2cc(O)c(O)cc2c2ccc3cc(O)c(O)cc3c21 yielded a TGI of over 100 µM. Compound COc1ccc2c(c1)c1c(n2CCN2CCCCC2)-c2cccc(OC)c2CC1 has a TGI of 35 µM. Work on COc1ccc2nc(NC(=O)/C(C#N)=C/c3ccccc3)sc2c1 yielded a TGI of over 100 µM. Cc1c(C)n(-c2ccccc2)c2nc(S(C)=O)nc(S(C)=O)c12 (configuration not stated) gave a TGI of 13.6 µM. Work on CC1(C)CC(=O)C2=C(C1)C(c1ccccc1Cl)C1C(=O)CC(C)(C)CC1(O)O2 (configuration not stated) yielded a TGI of over 100 µM. In the case of Cc1ccc2c(c1C)C(=O)C1(Cc3cc4c(cc3C1=O)CCC4)C2 (configuration not stated), the TGI is reported as over 100 µM. For C[C@@H]1CC[C@@]2(C)C(C(=O)O)=CCCC2[C@@]1(C)CC(=O)c1ccoc1 (some centres not stated), the TGI was over 25 µM. O=C(CCc1cc(O)cc(O)c1)NCCc1cc(OCc2ccccc2)cc(OCc2ccccc2)c1 showed a TGI of 35 µM. c1ccc(C2=NC3OC2c2ccccc23)cc1 (configuration not stated) was tested, and the TGI was over 10 µM. For O=c1oc2ccc3ccccc3c2cc1-c1cn2ccsc2n1, the TGI was 46.3 µM. CCOC(=O)CSc1nc(N)c2c(-c3ccccc3)c3c(nc2n1)CCCC3 gave a TGI of over 100 µM. For COC(=O)/C=C(/C=C1/C(C#N)=C(N)N(c2ccc(Cl)cc2)C1(C)/C(=C\C(=O)OC)C(=O)OC)C(=O)OC (configuration not stated), the TGI was 30.8 µM. For Cc1ccccc1-c1nc2c(N)nc(N)nc2nc1N, the TGI was over 100 µM. Work on CCOC(=O)c1c(N2CCCC2)[nH]c(=O)c(C(c2ccc(OC)cc2)c2c(O)c(C(=O)OCC)c(N3CCCC3)[nH]c2=O)c1O yielded a TGI of over 100 µM.
